Consider 10 molecules from patent US20090215710A1, “CARBOHYDRATE BASED TOLL-LIKE RECEPTOR (TLR) ANTAGONISTS” (RELIANCE LIFE SCIENCES PVT. LTD., priority 2007, published 2009).

In one data set the test system is TNF. The data set can be described thus: Pre-screen for TNF inhibition activity of synthesized molecules (Table 1). Format: cell-based.
Data set [1] can be described thus: Cell viability in pre-screen (Table 1). The format is cell-based.

`COc1ccc(O[C@H]2O[C@@H]3COC(c4ccccc4)O[C@H]3[C@H](O[C@@H]3O[C@H](COC(=O)CCC(C)=O)[C@@H](OS(=O)(=O)O)[C@H](OC(C)=O)[C@H]3OC(C)=O)[C@H]2NC(=O)C(Cl)(Cl)Cl)cc1` (stereo partly drawn) [RSCL-0621, p-Methoxy phenyl-O-(2,3-di-O-acetyl-4-O-sulfo-6-O-levulinoyl-β-D-glucopyranosyl)-(1-3)-2-deoxy-2-trichloroacetamido-4,6-O-benzylidene-α-D-glucopyranoside]: the “% TNF Inhibition” value in the data set with TNF (1 uM) is recorded as 36%; in the data set with TNF (10 uM) it was 38%; in the data set on TNF (50 uM) it was 49%; in the data set on TNF (100 uM), 66%. For the same molecule, the “% Viability” value in data set [1] (1 uM) turned out to be 90%; in data set [1] (10 uM), 95%; in data set [1] (50 uM), 98%; in data set [1] (100 uM) it was 96%.

For `COc1ccc(O[C@@H]2O[C@H](COC(C)=O)[C@@H](OC(C)=O)[C@H](OC(C)=O)[C@H]2OC(C)=O)cc1` [RSCL-0367, 1-O-(p-Methoxyphenyl)-2,3,4,6-tetra-O-acetyl-β-D-Glucopyranoside], the “% TNF Inhibition” value with TNF (1 uM), with TNF (10 uM), in the data set with TNF (50 uM) and with TNF (100 uM) was 0% throughout. The “% Viability” value in data set [1] (1 uM) came to 114%; in data set [1] (10 uM) it was 118%; in data set [1] (50 uM), 105%; in data set [1] (100 uM), 116%.

As for `COc1ccc(O[C@H]2O[C@@H]3COC(c4ccccc4)O[C@H]3[C@H](O[C@@H]3O[C@H](COC(=O)CCC(C)=O)[C@@H](OC(C)=O)[C@H](OC(C)=O)[C@H]3OC(C)=O)[C@H]2NC(=O)C(Cl)(Cl)Cl)cc1` (stereo partly drawn) [RSCL-0625, p-Methoxy phenyl-O-(2,3,4-tri-O-acetyl-6-O-levulinoyl-β-D-glucopyranosyl)-(1-3)-2-deoxy-2-trichloroacetamido-4,6-O-benzylidene-α-D-glucopyranoside], the “% TNF Inhibition” value in the data set with TNF (1 uM) was found to be 31%; with TNF (10 uM) it was 27%; with TNF (50 uM), 22%; with TNF (100 uM) it was 31%. Moreover, the “% Viability” value in data set [1] (1 uM) is listed as 90%; in data set [1] (10 uM) it was 96%; in data set [1] (50 uM) it was 99%; in data set [1] (100 uM), 97%.

With `COc1ccc(O[C@H]2O[C@@H]3COC(c4ccccc4)O[C@H]3[C@H](O[C@@H]3O[C@H](COC(=O)CCl)[C@@H](OC(C)=O)[C@H](OC(C)=O)[C@H]3OC(C)=O)[C@H]2NC(=O)C(Cl)(Cl)Cl)cc1` (stereo partly drawn) [RSCL-0630, p-Methoxy phenyl-O-(2,3,4-tri-O-acetyl-6-O-chloroacetyl-β-D-glucopyranosyl)-(1-3)-2-deoxy-2-trichloroacetamido-4,6-O-benzylidene-α-D-glucopyranoside], the “% TNF Inhibition” value in the data set with TNF (1 uM) was 31%; in the data set with TNF (10 uM), 36%; in the data set on TNF (50 uM), 61%; with TNF (100 uM), 0%. Moreover, the “% Viability” value in data set [1] (1 uM) is reported as 95%; in data set [1] (10 uM), 88%; in data set [1] (50 uM), 85%; in data set [1] (100 uM), 81%.

With “p-Methoxy phenyl-2-deoxy-2-trichloroacetamido-4,6-O-benzylidene-β-D-glucopyranosyl)-(1-4)-O-(2,3-di-O-acetyl-6-O-levulinoyl-β-D-glucopyranoside [RSCL-0635]”, the “% TNF Inhibition” value in the data set on TNF (1 uM), in the data set with TNF (10 uM), with TNF (50 uM) and in the data set on TNF (100 uM) was 0% each time. Further, the “% Viability” value in data set [1] (1 uM) came to 97%; in data set [1] (10 uM), 89%; in data set [1] (50 uM), 82%; in data set [1] (100 uM), 81%.

As for `COc1ccc(O[C@H]2O[C@@H]3COC(c4ccccc4)O[C@H]3[C@H](O)[C@H]2NC(=O)C(Cl)(Cl)Cl)cc1` (stereo partly drawn) [RSCL-0400, 1-O-(p-Methoxyphenyl)-2-deoxy-2-trichloroacetamido-4,6-O-benzylidene-α-D-glucopyranoside], the “% TNF Inhibition” value in the data set on TNF (1 uM), with TNF (10 uM), in the data set with TNF (50 uM) and in the data set with TNF (100 uM) was 0% each time. Besides, the “% Viability” value in data set [1] (1 uM) is 93%; in data set [1] (10 uM), 82%; in data set [1] (50 uM), 70%; in data set [1] (100 uM) it was 63%.

Turning to `COc1ccc(OC2OC3COC(c4ccccc4)OC3C(OC3OC(COC(=O)CCl)C(OC(=O)CCl)C(OC(C)=O)C3OC(C)=O)C2NC(=O)C(Cl)(Cl)Cl)cc1` [RSCL-0631, p-Methoxy phenyl-O-(2,3-di-O-acetyl-4,6-di-O-chloroacetyl-β-D-glucopyranosyl)-(1-3)-2-deoxy-2-trichloroacetamido-4,6-O-benzylidene-α-D-glucopyranoside], the “% TNF Inhibition” value is reported as 77% in the data set with TNF (1 uM), 38% in the data set with TNF (10 uM), 92% in the data set on TNF (50 uM) and 99% with TNF (100 uM). Besides, the “% Viability” value in data set [1] (1 uM) turned out to be 95%; in data set [1] (10 uM), 70%; in data set [1] (50 uM) it was 20%; in data set [1] (100 uM) it was 8%.

Take `COc1ccc(O[C@H]2O[C@@H]3COC(c4ccccc4)O[C@H]3[C@H](O[C@@H]3O[C@H](CO)[C@@H](OC(=O)CCl)[C@H](OC(C)=O)[C@H]3OC(C)=O)[C@H]2NC(=O)C(Cl)(Cl)Cl)cc1` (stereo partly drawn) [RSCL-0629, p-Methoxy phenyl-O-(2,3-di-O-acetyl-4-O-chloroacetyl-β-D-glucopyranosyl)-(1-3)-2-deoxy-2-trichloroacetamido-4,6-O-benzylidene-α-D-glucopyranoside]: the “% TNF Inhibition” value is 0% with TNF (1 uM), 94% with TNF (10 uM), 102% with TNF (50 uM) and 100% in the data set with TNF (100 uM). The “% Viability” value in data set [1] (1 uM) worked out at 99%; in data set [1] (10 uM), 57%; in data set [1] (50 uM) it was 13%; in data set [1] (100 uM), 11%.

`COc1ccc(O[C@H]2O[C@@H]3COC(c4ccccc4)O[C@H]3[C@H](O[C@@H]3O[C@H](COC(=O)CCC(C)=O)[C@@H](O)[C@H](OC(C)=O)[C@H]3OC(C)=O)[C@H]2NC(=O)C(Cl)(Cl)Cl)cc1` (stereo partly drawn) [RSCL-0440, p-Methoxy phenyl-O-(2,3-di-O-acetyl-6-O-levulinoyl-β-D-glucopyranosyl)-(1-3)-2-deoxy-2-trichloroacetamido-4,6-O-benzylidene-α D-glucopyranoside]: the “% TNF Inhibition” value is 34% in the data set on TNF (1 uM), 42% in the data set on TNF (10 uM), 46% in the data set with TNF (50 uM) and 47% in the data set on TNF (100 uM). The “% Viability” value is listed as 114% in data set [1] (1 uM), 115% in data set [1] (10 uM), 129% in data set [1] (50 uM) and 119% in data set [1] (100 uM).

`COc1ccc(O[C@H]2O[C@@H]3COC(c4ccccc4)O[C@H]3[C@H](O[C@@H]3O[C@H](CO)[C@@H](O)[C@H](OC(C)=O)[C@H]3OC(C)=O)[C@H]2NC(=O)C(Cl)(Cl)Cl)cc1` (stereo partly drawn) [RSCL-0628, p-Methoxy phenyl-O-(2,3-di-O-acetyl-β-D-glucopyranosyl)-(1-3)-2-deoxy-2-trichloroacetamido-4,6-O-benzylidene-α-D-glucopyranoside]: the “% TNF Inhibition” value in the data set on TNF (1 uM) is 0%; with TNF (10 uM), 92%; in the data set on TNF (50 uM), 102%; with TNF (100 uM), 100%. The “% Viability” value in data set [1] (1 uM) was 89%; in data set [1] (10 uM), 60%; in data set [1] (50 uM), 10%; in data set [1] (100 uM), 8%.
